Test results: patent publication US8673652B2, “Immunoassay with extended detection window” (priority 2010, dated 2014)
Converted amounts (≈) assume the structure as drawn.

Key:
[1] = test system: polyclonal antibody raised against zolpidem analogue derivatised at the 4'-phenyl ring coupled to BTG; test: Competitive ELISA for zolpidem (antibody specificity and sensitivity); type: binding, sheep; settings: for IC50 (ng/ml) / IC50: competitive ELISA, hapten-HRP conjugate, absorbance at 450 nm; for % CR = percentage cross-reactivity based on 100% specificity to zolpidem: relative to zolpidem = 100%
Protocol: Analogues of zolpidem derivatised at the 4′-phenyl ring were coupled by way of a crosslinker to bovine thyroglobulin (BTG). The resulting immunogens were administered separately to adult sheep on a monthly basis to provide target-specific polyclonal antisera. IgG was extracted from the antisera via caprylic acid/ammonium sulphate precipitation of immunoglobulin. Microtitre plates were coated with antibody (125 μl/well) in coating buffer (10 mM Tris pH 8.5) at 37° C. for 2 h. The plates were then washed 4 times over 10 mins with working strength TBST. 50 μl of sample/standard (zolpidem, Sequioa SRP00500z; alpidem, TRC A575560; zaleplon, Sequioa SRP00300z; zopiclone, Sequioa SRP02000z; zolpidem Carboxylic Acid, Randox LK865 and zolpidem carboxylic acid, Randox LK855) was added to the appropriate wells in triplicate, followed by 75 μl of hapten-HRP conjugate and incubated at 25° C. for 1 h. The plates were then washed and 125 μl of TMB (Randox, 4380-15) was added to each well and left at room temperature for 20 mins in the dark. The reaction was stopped using 125 μl of 0.2M sulphuric acid. The absorbances were read at 450 nm with an ELISA microplate reader (BIO-TEK Instruments, Elx800) and the means calculated. Antibody specificity and sensitivity were then determined.
Competitive ELISA results in Table 1 and FIG. 3 highlight the specificity of the antibody of the disclosure towards zolpidem and cross-reactivity towards 4-[3-(2-N,N-dimethylamino-2-oxoethyl)-6-methylimidazo[1,2-a]pyridin-2-yl]benzoic acid. […] The disclosure, through its unique immunogens and antibodies, thus enables methods and kits able to detect and determine zolpidem and/or 4-[3-(2-N,N-dimethylamino-2-oxoethyl)-6-methylimidazo[1,2-a]pyridin-2-yl]benzoic acid with high sensitivity.

[2] = cited from earlier work

Compound	IC50 (ng/ml) [1]	% CR = percentage cross-reactivity based on 100% specificity to zolpidem [1]	share of metabolite produced by cytochrome P450 mediated metabolism of zolpidem ([2]; metabolism mediated by cytochrome P450)	IC50 [1] [ng/mL]	half-life ([2]; upon ingestion) [h]
CCCN(CCC)C(=O)Cc1c(-c2ccc(Cl)cc2)nc2ccc(Cl)cn12 [Alpidem, alpidem]	>>50 ng/ml	<<1.26%			
Cc1ccc2nc(-c3ccc(C(=O)O)cc3)c(CC(=O)N(C)C)n2c1 [Hapten M1, 4-[3-(2-N,N-dimethylamino-2-oxoethyl)-6-methylimidazo[1,2-a]pyridin-2-yl]benzoic acid]		18.6%	more than 80%	3.33 (≈ 9.87 nM)	
Cc1ccc(-c2nc3ccc(C(=O)O)cn3c2CC(=O)N(C)C)cc1 [Hapten M2, 3-(2-N,N-dimethylamino-2-oxoethyl)-2-(4-methylphenyl)imidazo[1,2-a]pyridin-6-yl carboxylic acid]		<0.13%		>500	
CCN(C(C)=O)c1cccc(-c2ccnc3c(C#N)cnn23)c1 [Zaleplon, zaleplon]	>>50 ng/ml	<<1.26%			
Cc1ccc(-c2nc3ccc(C)cn3c2CC(=O)N(C)C)cc1 [Zolpidem, N,N-dimethyl-2-[6-methyl-2-(4-methylphenyl)imidazo[1,2-a]pyridin-3-yl]acetamide]		100%		0.63 (≈ 2.05 nM)	1.5 to 3
CN1CCN(C(=O)OC2c3nccnc3C(=O)N2c2ccc(Cl)cn2)CC1 (centres unmarked) [Zopiclone, zopiclone]	>>50 ng/ml	<<1.26%			
